Reference: patent US8637528B2, “Use of PDE7 inhibitors for the treatment of movement disorders” (Omeros Corporation, priority 2007, dated 2014)
pIC50: −log10 of the molar value. “Also recorded” adds a separate entry of the source.

What was measured:
PDE7A = PDE7A (Homo sapiens (Human), UniProt Q13946); assay: PDE7 phosphodiesterase scintillation proximity assay (SPA), PDE7A; format: biochemical; conditions: for Fold Selectivity, PDE7A: IC50 against PDE7A divided by IC50 against PDE7A; for selectivity for inhibition of the PDE7A enzyme as compared to the other PDEs: versus PDE1B, 2A, 3A, 4A, 5A, 8A, 9A, 10A, 11A
PDE7A, sequence (Q13946 whole entry, looked up): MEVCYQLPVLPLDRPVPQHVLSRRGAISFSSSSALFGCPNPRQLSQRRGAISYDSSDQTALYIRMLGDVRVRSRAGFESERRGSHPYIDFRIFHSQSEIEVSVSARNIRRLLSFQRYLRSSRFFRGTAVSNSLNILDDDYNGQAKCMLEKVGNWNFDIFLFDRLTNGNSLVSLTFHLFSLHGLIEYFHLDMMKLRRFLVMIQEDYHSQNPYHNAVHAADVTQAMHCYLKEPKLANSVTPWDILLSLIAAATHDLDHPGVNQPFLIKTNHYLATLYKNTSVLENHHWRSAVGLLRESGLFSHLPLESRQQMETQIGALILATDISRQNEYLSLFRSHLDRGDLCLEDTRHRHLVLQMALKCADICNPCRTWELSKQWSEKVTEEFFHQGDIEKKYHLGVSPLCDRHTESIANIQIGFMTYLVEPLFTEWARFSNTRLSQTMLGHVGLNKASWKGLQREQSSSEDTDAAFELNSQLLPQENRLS

PDE8A = PDE8A (Homo sapiens (Human), UniProt O60658); assay: PDE selectivity SPA assay, PDE8A; format: biochemical; conditions: IC50 against PDE8A divided by IC50 against PDE7A
PDE8A, sequence (O60658 whole entry): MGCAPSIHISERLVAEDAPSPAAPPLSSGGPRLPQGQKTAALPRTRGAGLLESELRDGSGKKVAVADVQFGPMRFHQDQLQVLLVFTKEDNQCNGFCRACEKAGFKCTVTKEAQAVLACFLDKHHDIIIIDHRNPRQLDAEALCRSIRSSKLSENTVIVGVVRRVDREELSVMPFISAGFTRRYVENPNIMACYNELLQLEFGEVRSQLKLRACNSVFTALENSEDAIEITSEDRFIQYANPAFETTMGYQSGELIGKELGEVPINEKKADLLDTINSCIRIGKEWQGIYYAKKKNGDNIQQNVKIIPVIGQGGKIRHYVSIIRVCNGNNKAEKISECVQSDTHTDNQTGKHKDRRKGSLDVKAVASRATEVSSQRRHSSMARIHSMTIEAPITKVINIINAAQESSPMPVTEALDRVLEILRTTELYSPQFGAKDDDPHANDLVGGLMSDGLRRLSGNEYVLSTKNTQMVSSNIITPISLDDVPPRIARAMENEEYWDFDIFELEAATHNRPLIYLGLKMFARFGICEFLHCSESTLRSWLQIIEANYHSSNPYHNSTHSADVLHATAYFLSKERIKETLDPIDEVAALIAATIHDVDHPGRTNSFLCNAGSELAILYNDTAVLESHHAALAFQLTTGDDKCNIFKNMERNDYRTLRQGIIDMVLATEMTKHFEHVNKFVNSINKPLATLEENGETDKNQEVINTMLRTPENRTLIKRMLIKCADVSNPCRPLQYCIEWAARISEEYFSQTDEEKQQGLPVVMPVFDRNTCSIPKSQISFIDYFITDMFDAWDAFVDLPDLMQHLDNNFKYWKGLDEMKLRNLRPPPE

PDE3A = PDE3A (Homo sapiens (Human), UniProt Q14432); assay: PDE selectivity SPA assay, PDE3A; format: biochemical; conditions: IC50 against PDE3A divided by IC50 against PDE7A
PDE3A, sequence (Q14432 whole entry): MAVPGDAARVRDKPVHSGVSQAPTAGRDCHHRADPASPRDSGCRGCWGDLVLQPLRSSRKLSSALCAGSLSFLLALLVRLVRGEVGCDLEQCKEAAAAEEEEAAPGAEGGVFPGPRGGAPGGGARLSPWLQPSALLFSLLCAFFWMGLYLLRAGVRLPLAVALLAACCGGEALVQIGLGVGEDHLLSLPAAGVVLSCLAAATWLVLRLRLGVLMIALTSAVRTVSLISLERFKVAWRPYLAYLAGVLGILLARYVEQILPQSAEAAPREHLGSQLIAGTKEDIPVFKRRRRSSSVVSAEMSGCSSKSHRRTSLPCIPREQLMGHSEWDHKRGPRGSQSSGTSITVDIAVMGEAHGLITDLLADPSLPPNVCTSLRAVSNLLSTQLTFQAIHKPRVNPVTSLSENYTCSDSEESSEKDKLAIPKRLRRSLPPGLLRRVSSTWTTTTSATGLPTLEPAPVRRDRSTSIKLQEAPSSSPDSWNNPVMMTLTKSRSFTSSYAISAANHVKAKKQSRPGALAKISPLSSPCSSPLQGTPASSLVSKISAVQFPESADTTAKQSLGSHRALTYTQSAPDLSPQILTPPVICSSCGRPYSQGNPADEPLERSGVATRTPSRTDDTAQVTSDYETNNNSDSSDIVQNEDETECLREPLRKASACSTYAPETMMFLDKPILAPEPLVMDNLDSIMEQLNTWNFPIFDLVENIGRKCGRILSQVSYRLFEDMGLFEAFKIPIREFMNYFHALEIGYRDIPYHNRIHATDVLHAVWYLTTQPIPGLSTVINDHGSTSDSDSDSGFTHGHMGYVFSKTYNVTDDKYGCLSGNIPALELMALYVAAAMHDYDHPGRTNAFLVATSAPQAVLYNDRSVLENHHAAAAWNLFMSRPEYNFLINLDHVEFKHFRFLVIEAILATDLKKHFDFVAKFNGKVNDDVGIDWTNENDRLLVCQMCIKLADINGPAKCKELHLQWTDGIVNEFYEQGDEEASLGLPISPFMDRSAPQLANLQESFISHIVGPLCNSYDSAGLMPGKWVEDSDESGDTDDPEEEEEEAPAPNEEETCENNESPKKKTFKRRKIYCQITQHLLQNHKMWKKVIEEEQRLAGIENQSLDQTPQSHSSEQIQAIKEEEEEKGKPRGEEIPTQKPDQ

PDE9A = PDE9A (Homo sapiens (Human), UniProt O76083); assay: PDE selectivity SPA assay, PDE9A; format: biochemical; conditions: IC50 against PDE9A divided by IC50 against PDE7A
PDE9A, sequence (O76083 whole entry): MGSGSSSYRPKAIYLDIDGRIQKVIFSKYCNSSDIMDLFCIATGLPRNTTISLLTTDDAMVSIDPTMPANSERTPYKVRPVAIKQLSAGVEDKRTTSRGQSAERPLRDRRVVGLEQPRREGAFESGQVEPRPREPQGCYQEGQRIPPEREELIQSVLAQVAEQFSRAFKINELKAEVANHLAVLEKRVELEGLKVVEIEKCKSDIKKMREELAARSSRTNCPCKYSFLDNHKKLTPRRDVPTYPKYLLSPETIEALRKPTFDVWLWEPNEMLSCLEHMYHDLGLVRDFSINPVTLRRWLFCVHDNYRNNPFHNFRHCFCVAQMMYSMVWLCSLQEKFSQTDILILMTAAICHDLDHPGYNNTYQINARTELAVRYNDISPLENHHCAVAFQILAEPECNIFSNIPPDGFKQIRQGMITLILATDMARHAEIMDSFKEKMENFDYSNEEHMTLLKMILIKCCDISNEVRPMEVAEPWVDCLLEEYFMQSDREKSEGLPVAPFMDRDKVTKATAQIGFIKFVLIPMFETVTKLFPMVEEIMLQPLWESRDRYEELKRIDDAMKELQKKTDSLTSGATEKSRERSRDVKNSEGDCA

MPTP-treated mice [1] = assay: inked paw stride length in the MPTP mouse model of Parkinson's disease, panel of PDE7 inhibitors (Example 7); format: in vivo
Description: Adult male C57BL/6J; retired breeders, aged between 7-9 months Charles River Laboratories, Wilmington, Mass.), singly housed. Three groups of 35 mice were tested in series one week apart.
Mice received 2 subcutaneous injections of methylphenyltetrahydropyridine (“MPTP”) at a dose of 15 mg/kg (free base) with a 10-12 hour interval between injections. Control mice (sham lesion groups) were administered saline instead of MPTP.
(§1) Prior to injection with MPTP or saline, animals were pre-trained to walk across a clean sheet of paper into their home cage without stopping. For assessment of stride length, animals had their forepaws placed in black ink and the length of forepaw steps during normal walking (in a straight line only) was measured. The animals were immediately put back into their home cage upon completion of the task. Stride length was determined by measuring the distance between each step on the same side of the body, measuring from the middle toe of the first step to the heel of the second step. An average of at least four clear steps was calculated. The schedule for this experiment was as follows:
Because of the wide variation in aqueous solubility among these compounds, a number of different formulations were required. L-dopa was administered in 100 μl of phosphate buffered saline. For animals treated with L-dopa, the dopa decarboxylase inhibitor benserazide (100 μL of a 12.5 mg/kg solution) was administered 15 minutes prior to treatment with L-dopa in order to minimize the destruction of L-dopa in the peripheral blood. […] Therefore, the treatment effects observed are due solely to the PDE7 inhibitory compounds themselves. […] This phenomenon of “overshoot” has also been observed with L-dopa in MPTP-treated mice in which lower doses ameliorate hypoactivity while higher doses induce dyskinesias or uncontrolled movements (Lundblad M. et al., Exp Neurol.194(1):66-75 (2005); Pearce R. K. et al., Mov Disord. 10(6):731-40 (1995); Fredriksson, A. et al, Pharmacol-Toxicol. 67(4): 295-301 (1990)).
Retired breeder male mice were treated with either saline or 2×15 mg/kg MPTP to induce a Parkinsonian state (neurochemical loss of dopamine with corresponding behavioral deficits). On day one baseline stride length was measured and then mice were treated with either MPTP or with saline as a control. On day eight stride length was measured again, and the control value for stride length was derived from the stride length of saline-treated animals. The animals were then divided randomly into treatment groups. Compound OM955 (compound 3) was tested at 0.1 mg/kg, at 0.5 mg/kg, and at 0.1 mg/kg in combination with 1 mg/kg L-dopa.

MPTP-treated mice [2] = assay: inked paw stride length in the MPTP mouse model of Parkinson's disease, confirmatory study (Example 6); format: in vivo; set-up: key to Letter Designation (statistical group of stride length): A: Groups that share a letter are not statistically different; groups that do not share a letter are significantly different from each other.; B: Groups that share a letter are not statistically different; groups that do not share a letter are significantly different from each other.; C: Groups that share a letter are not statistically different; groups that do not share a letter are significantly different from each other; conditions: for Letter Designation (statistical group of stride length): No treatment = A, MPTP = B; for Stride length (cm) MEAN ± SEM: MPTP-lesioned mice, 20 minutes after dosing
Description: Adult male C57BL/6J; retired breeders, aged between 7-9 months (Jackson Laboratory, Bar Harbor, Me., USA), singly housed.
MPTP Mice received 2 subcutaneous injections of methylphenyltetrahydropyridine (“MPTP”) at a dose of 15 mg/kg (free base) with a 10-12 hour interval between injections. Control mice (sham lesion groups) were administered saline instead of MPTP.
Seven days after MPTP/saline administration, OM69 was administered to mice. For each dose, a 100× stock of OM69 was prepared in 100% DMSO and subsequently diluted 100× into phosphate buffered saline (PBS). Then 100 μL of this 1× solution was administered intraperitoneally (IP).
as §1, with “calculated.” for “calculated. The schedule for this experiment was as follows:”
Data was analyzed using Prism 4.0 software. Groups were analyzed by one way ANOVA and Student-Newman-Keuls post hoc test when appropriate. Significance was considered reached at p<0.05. Treatment groups in the stride length graph that are statistically different are indicated by the letters in Table 6.
Retired breeder male mice (28 animals total) were treated with 2×15 mg/kg MPTP (12 saline; […]) to induce a Parkinsonian state (neurochemical loss of dopamine with corresponding behavioral deficits). On day 1 baseline stride length was measured and then all mice were treated with MPTP or saline. On day 8 stride length was measured again, and then the MPTP-treated animals were divided randomly into two groups of fourteen. As described in Example 5, dosing with the successive treatments indicated in FIG. 12 occurred on consecutive days, and in each case stride length was measured 20 minutes after dosing.
On Day 9, Group 1 animals were treated with OM69 (0.01 mg/kg) and Group 2 were treated with L-dopa (1 mg/kg). On Day 10, Group 1 animals were treated with OM69 (0.03 mg/kg) and Group 2 were treated with L-dopa (5 mg/kg). On Day 11, Group 1 animals were treated with OM69 (0.05 mg/kg) and Group 2 were treated with OM69 (0.1 mg/kg). On Day 12, Group 1 was treated with OM69 (0.07 mg/kg).
Next, for combination studies, the two groups were combined. On Day 14, all the animals were treated with both L-dopa (1 mg/kg) and OM69 (0.01 mg/kg). On Day 15, all the animals were treated with L-dopa (1 mg/kg) in combination with a higher dose of OM69 (0.03 mg/kg).

## O=C1Nc2c(Cl)ccc(OCCO)c2C2(CCCCC2)N1 [OM955]
PDE7A
  pIC50: 7.29
  potency of PDE7A inhibition, in words: moderate potency
  selectivity between PDE7A and PDE7B, in words: little or no selectivity
  Fold Selectivity, PDE7A: 1 fold
  selectivity for inhibition of the PDE7A enzyme as compared to the other PDEs: greater than 100 fold
PDE8A
  Fold Selectivity for PDE7A versus PDE8A: >192 fold
PDE3A
  Fold Selectivity for PDE7A versus PDE3A: >192 fold
PDE9A
  Fold Selectivity for PDE7A versus PDE9A: >192 fold
MPTP-treated mice [1]; OM955 0.1 mg/kg alone, 20 minutes after administration
  effect on stride length, in words: do not increase stride length when administered alone; also recorded: does not increase stride length in MPTP mice to a significant level
MPTP-treated mice [1]; OM955 0.5 mg/kg, 20 minutes (and one hour) after injection
  effect on stride length, in words: statistically significant improvement in the stride length; also recorded: fully restored to that of unlesioned animals; also recorded: full recovery of baseline stride length

## N[C@@H](Cc1ccc(O)c(O)c1)C(=O)O [L-dopa, levodopa, reference compound]
MPTP-treated mice [2]; 1 mg/kg L-DOPA
  Letter Designation (statistical group of stride length): B
  Stride length (cm) MEAN ± SEM: 5.78 ± 0.09 cm
MPTP-treated mice [2]; 5 mg/kg L-DOPA
  Letter Designation (statistical group of stride length): A
  Stride length (cm) MEAN ± SEM: 7.29 ± 0.07 cm
MPTP-treated mice [2]; MPTP-treated mice, 1 mg/kg L-dopa
  effect on stride length, in words: did not result in a significant increase in stride length
MPTP-treated mice [2]; MPTP-treated mice, 5 mg/kg L-dopa
  effect on stride length, in words: returned stride length to control (unlesioned) values
MPTP-treated mice [1]; L-dopa 1 mg/kg alone, 20 minutes after administration
  effect on stride length, in words: do not increase stride length when administered alone; also recorded: does not increase stride length in MPTP mice to a significant level

## COc1cc(N)ccc1-c1cc2c(c(=O)[nH]1)C(C1CCCCC1)N=[N+]2C (stereo not shown) [OM69]
MPTP-treated mice [2]; 0.01 mg/kg OM69
  Letter Designation (statistical group of stride length): B
MPTP-treated mice [2]; 0.03 mg/kg OM69
  Letter Designation (statistical group of stride length): B
MPTP-treated mice [2]; 0.05 mg/kg OM69
  Letter Designation (statistical group of stride length): C
MPTP-treated mice [2]; 0.07 mg/kg OM69
  Letter Designation (statistical group of stride length): C
MPTP-treated mice [2]; 0.1 mg/kg OM69
  Letter Designation (statistical group of stride length): A
MPTP-treated mice [2]; 0.01 mg/kg OM69 IP
  Stride length (cm) MEAN ± SEM: 5.77 ± 0.17 cm
MPTP-treated mice [2]; 0.03 mg/kg OM69 IP
  Stride length (cm) MEAN ± SEM: 5.93 ± 0.14 cm
MPTP-treated mice [2]; 0.05 mg/kg OM69 IP
  Stride length (cm) MEAN ± SEM: 6.38 ± 0.14 cm
MPTP-treated mice [2]; 0.07 mg/kg OM69 IP
  Stride length (cm) MEAN ± SEM: 6.65 ± 0.18 cm
MPTP-treated mice [2]; 0.1 mg/kg OM69 IP
  Stride length (cm) MEAN ± SEM: 7.23 ± 0.07 cm
MPTP-treated mice [2]; MPTP-treated mice
  potency relative to L-dopa in restoring stride length: approximately 50 fold
MPTP-treated mice [2]; MPTP-treated mice, 0.1 mg/kg OM69
  effect on stride length, in words: returned stride length to control (unlesioned) values
MPTP-treated mice [2]; MPTP-treated mice, FIG. 18
  dose dependence of the effect on stride length, in words: increases stride length in MPTP-treated mice in a dose-dependent manner
MPTP-treated mice [2]; MPTP-treated mice, intermediate doses of OM69
  effect on stride length, in words: statistically significant (p<0.05) increase in stride length
MPTP-treated mice [2]; MPTP-treated mice, low doses of OM69 (0.01 mg/kg or 0.03 mg/kg)
  effect on stride length, in words: did not increase stride length
PDE7A
  pIC50: 8.89
  potency of PDE7A inhibition, in words: high potency
  selectivity between PDE7A and PDE7B, in words: little or no selectivity
  Fold Selectivity, PDE7A: 1 fold
  selectivity for inhibition of the PDE7A enzyme as compared to the other PDEs: greater than 1000 fold
PDE8A
  Fold Selectivity for PDE7A versus PDE8A: >7700 fold
PDE3A
  Fold Selectivity for PDE7A versus PDE3A: 8170 fold
PDE9A
  Fold Selectivity for PDE7A versus PDE9A: >7700 fold
